In ChEMBL document CHEMBL2424549, “Design, synthesis and biological evaluation of 4-(1-(4(sulphanilamide)phenyl)-3-(methyl)-1H-pyrazol-5-yl)dine urea and N-acyl derivatives as a soluble epoxide hydrolase inhibitors” (Med Chem Res, 2013):

Tests used:
[1] = target: T1, Bifunctional epoxide hydrolase 2 (Homo sapiens) (UniProt P34913); assay: Inhibition of human recombinant soluble epoxide hydrolase using (3-phenyl-oxiranyl)-acetic acid cyano-(6-methoxy-naphtalen-2-yl)-methyl ester as substrate at 100 uM incubated for 15 mins prior to substrate addition by fluorescence assay
T1 sequence (whole entry): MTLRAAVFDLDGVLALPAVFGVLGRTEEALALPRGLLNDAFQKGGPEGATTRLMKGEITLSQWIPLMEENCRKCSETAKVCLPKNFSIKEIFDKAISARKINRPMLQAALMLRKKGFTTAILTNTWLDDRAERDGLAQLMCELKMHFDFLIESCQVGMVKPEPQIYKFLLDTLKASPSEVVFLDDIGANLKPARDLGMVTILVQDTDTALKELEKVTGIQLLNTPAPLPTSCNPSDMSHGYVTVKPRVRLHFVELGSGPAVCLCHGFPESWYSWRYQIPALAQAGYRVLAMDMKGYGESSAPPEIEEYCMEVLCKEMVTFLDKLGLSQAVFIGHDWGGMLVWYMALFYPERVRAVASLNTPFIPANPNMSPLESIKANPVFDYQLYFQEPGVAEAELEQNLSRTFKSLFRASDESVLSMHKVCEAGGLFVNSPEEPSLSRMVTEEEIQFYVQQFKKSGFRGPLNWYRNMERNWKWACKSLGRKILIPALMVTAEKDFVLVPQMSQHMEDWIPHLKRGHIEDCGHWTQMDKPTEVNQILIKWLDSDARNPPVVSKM

[2] = target: T2, Bifunctional epoxide hydrolase 2 (Homo sapiens, UniProt P34913); assay: Inhibition of human recombinant soluble epoxide hydrolase using (3-phenyl-oxiranyl)-acetic acid cyano-(6-methoxy-naphtalen-2-yl)-methyl ester as substrate incubated for 15 mins prior to substrate addition by fluorescence assay
T2 sequence (P34913 whole entry): T1 sequence (whole entry)

| inhibition [1] [%] | IC50 [2] [µM] | Compound |
| --- | --- | --- |
| 54 |  | Cc1cc(C2CCN(C(=O)c3ccc(Cl)cc3)CC2)n(-c2ccc(S(C)(=O)=O)cc2)n1 |
| 57.2 |  | Cc1cc(C2CCN(C(=O)c3ccccc3)CC2)n(-c2ccc(S(N)(=O)=O)cc2)n1 |
| 54 |  | CCc1ccccc1NC(=O)N1CCC(c2cc(C)nn2-c2ccc(S(C)(=O)=O)cc2)CC1 |
| 92.7 | 16.7 | Cc1cc(C2CCN(C(=O)Nc3ccccc3)CC2)n(-c2ccc(S(N)(=O)=O)cc2)n1 |
| 45.4 | 13.6 | Cc1cc(C2CCN(C(=O)NC(C)C)CC2)n(-c2ccc(S(C)(=O)=O)cc2)n1 |
| 54 |  | Cc1cc(C2CCN(C(=O)Nc3ccccc3Cl)CC2)n(-c2ccc(S(N)(=O)=O)cc2)n1 |
| 105 | 0.224 | Cc1ccc(NC(=O)N2CCC(c3cc(C)nn3-c3ccc(S(N)(=O)=O)cc3)CC2)cc1 |
| 15.2 |  | COc1ccc(C(=O)N2CCC(c3cc(C)nn3-c3ccc(S(C)(=O)=O)cc3)CC2)cc1 |
| 54 |  | Cc1cc(C2CCN(C(=O)c3ccccc3)CC2)n(-c2ccc(S(C)(=O)=O)cc2)n1 |
| 54 |  | Cc1cc(C2CCN(C(=O)Nc3ccc(Cl)cc3)CC2)n(-c2ccc(S(C)(=O)=O)cc2)n1 |
| 94.2 |  | Cc1cc(C2CCN(C(=O)NCc3ccccc3)CC2)n(-c2ccc(S(C)(=O)=O)cc2)n1 |
| 54 |  | Cc1cc(C2CCN(C(=O)Nc3ccccc3Cl)CC2)n(-c2ccc(S(C)(=O)=O)cc2)n1 |
| 99.5 | 0.269 | CCCCNC(=O)N1CCC(c2cc(C)nn2-c2ccc(S(C)(=O)=O)cc2)CC1 |
| 68.6 |  | CCCNC(=O)N1CCC(c2cc(C)nn2-c2ccc(S(N)(=O)=O)cc2)CC1 |
| 54 |  | CCNC(=O)N1CCC(c2cc(C)nn2-c2ccc(S(C)(=O)=O)cc2)CC1 |
| 105 | 22.3 | Cc1cc(C2CCN(C(=O)NC(C)C)CC2)n(-c2ccc(S(N)(=O)=O)cc2)n1 |
| 114 | 3.47 | Cc1cc(C2CCN(C(=O)NC3CCCCC3)CC2)n(-c2ccc(S(C)(=O)=O)cc2)n1 |

| inhibition [1] [%] | IC50 [2] [µM] | Compound |
| --- | --- | --- |
| 32.5 |  | Cc1cc(C2CCN(C(=O)c3ccc(Cl)cc3)CC2)n(-c2ccc(S(N)(=O)=O)cc2)n1 |
| 32.9 |  | COc1ccc(C(=O)N2CCC(c3cc(C)nn3-c3ccc(S(N)(=O)=O)cc3)CC2)cc1 |
| 89.9 | 0.22 | Cc1cc(C2CCN(C(=O)Nc3ccccc3)CC2)n(-c2ccc(S(C)(=O)=O)cc2)n1 |
| 54 |  | Cc1ccc(NC(=O)N2CCC(c3cc(C)nn3-c3ccc(S(C)(=O)=O)cc3)CC2)cc1 |
| 23.3 |  | CCNC(=O)N1CCC(c2cc(C)nn2-c2ccc(S(N)(=O)=O)cc2)CC1 |
| 0 |  | Cc1ccc(C(=O)N2CCC(c3cc(C)nn3-c3ccc(S(N)(=O)=O)cc3)CC2)cc1 |
| 0 |  | Cc1cc(C2CCN(C(=O)c3ccc([N+](=O)[O-])cc3)CC2)n(-c2ccc(S(N)(=O)=O)cc2)n1 |
| 54 |  | CCCNC(=O)N1CCC(c2cc(C)nn2-c2ccc(S(C)(=O)=O)cc2)CC1 |
| 54 |  | CCCC(=O)N1CCC(c2cc(C)nn2-c2ccc(S(C)(=O)=O)cc2)CC1 |
| 99 | 0.275 | Cc1cc(C2CCN(C(=O)NC3CCCCC3)CC2)n(-c2ccc(S(N)(=O)=O)cc2)n1 |
| 42.1 |  | Cc1ccc(C(=O)N2CCC(c3cc(C)nn3-c3ccc(S(C)(=O)=O)cc3)CC2)cc1 |
| 68.7 |  | CCCC(=O)N1CCC(c2cc(C)nn2-c2ccc(S(N)(=O)=O)cc2)CC1 |
| 69.2 |  | Cc1cc(C2CCN(C(=O)NCc3ccccc3)CC2)n(-c2ccc(S(N)(=O)=O)cc2)n1 |
| 54 |  | Cc1cc(C2CCN(C(=O)NCCc3ccccc3)CC2)n(-c2ccc(S(C)(=O)=O)cc2)n1 |
| 54 |  | Cc1cc(C2CCN(C(=O)c3ccc([N+](=O)[O-])cc3)CC2)n(-c2ccc(S(C)(=O)=O)cc2)n1 |
| 82 | 10.1 | CCCCNC(=O)N1CCC(c2cc(C)nn2-c2ccc(S(N)(=O)=O)cc2)CC1 |
